The values that follow come from ChEMBL document CHEMBL5104092, “An insight into the recent development of the clinical candidates for the treatment of malaria and their target proteins” (Eur J Med Chem, 2021).

Data set [1] has as its system Plasmodium falciparum. Nature of the data set: Antimalarial activity against Plasmodium falciparum K1. The class given is functional, organism-based.
Data set [2] in a line: Dissociation constant, pKa of compound. Format: physicochemical.
Data set [3] relates to Plasmodium falciparum. Description: Antimalarial activity against Plasmodium falciparum NF54. The class given is functional, organism-based.
Data set [4] deals with Plasmodium falciparum. Description: Antimalarial activity against chloroquine resistant Plasmodium falciparum Dd2 incubated for 48 hrs by SYBR green I fluorescence based assay. The class given is functional, organism-based. As to conditions: Dd2, 48 h.
Data set [5] has as its system Plasmodium falciparum. Nature of the data set: Antimalarial activity against chloroquine sensitive Plasmodium falciparum NF54 incubated for 48 hrs by SYBR green I fluorescence based assay. Format: functional, organism-based. As to conditions: NF54, 48 h.
For data set [6], the system named is Plasmodium falciparum. Description: Antimalarial activity against chloroquine resistant Plasmodium falciparum K1 incubated for 48 hrs by SYBR green I fluorescence based assay. The class given is functional, organism-based. As to conditions: K1, 48 h.
For data set [7], the system named is Plasmodium falciparum. Description: Antimalarial activity against chloroquine resistant Plasmodium falciparum W2 incubated for 48 hrs by SYBR green I fluorescence based assay. Format: functional, organism-based. As to conditions: W2, 48 h.
The target in data set [8] is CYP450 (Homo sapiens, UniProt P04798+P05177+P05181+P08684+P10632+P10635+P11509+P11712+P13584+P20813+P20815+P20853+P24462+P24903+P33260+P33261+P51589+P78329+P98187+Q02928+Q08477+Q16678+Q16696+Q5TCH4+Q6VVX0+Q7Z449+Q8TAV3+Q96SQ9+Q9HB55). Description: Inhibition of CYP450 (unknown origin). Format: ADME, protein assay.
Data set [9] concerns Plasmodium falciparum. Nature of the data set: In vivo antimalarial activity against Plasmodium falciparum infected in SCID mouse. The class given is functional.
Data set [10] deals with Plasmodium falciparum. Nature of the data set: Antimalarial activity against Plasmodium falciparum 3D7 incubated for 72 hrs by SYBR-green method. As to conditions: 3D7, 72 h. Format: functional, organism-based.
Data set [11] is described as follows: Inhibition of Plasmodium falciparum DHODH expressed in Escherichia coli BL21 cells using L-dihydroorotate as substrate by DCIP staining method.
Data set [12] relates to Plasmodium falciparum. Nature of the data set: Antimalarial activity against multidrug resistant Plasmodium falciparum Dd2 incubated for 72 hrs by malaria SYBR green I nucleic acid staining dye based fluorescence assay. The class given is functional, organism-based. The note with it: Dd2, 72 h.
The nature of data set [13]: Inhibition of Plasmodium falciparum DHODH.
Data set [14] has as its system Plasmodium falciparum. Nature of the data set: Antimalarial activity against chloroquine-sensitive Plasmodium falciparum 3D7 by Giemsa staining method. Format: functional, organism-based.
Data set [15] concerns Plasmodium berghei. Description: In vivo antimalarial activity against Plasmodium berghei infected in Balb/C mouse model assessed as parasite clearance at 30 mg/kg, po administered every 24 hrs for 3 days followed by chloroquine addition measured on day 4 by flow cytometric analysis relative to control. The class given is functional. As to conditions: time 4 day.
Data set [16] has as its system Plasmodium falciparum. Description: Antiplasmodial activity against chloroquine sensitive Plasmodium falciparum NF54 by parasite lactate dehydrogenase assay. Format: functional, organism-based.
The target in data set [17] is Voltage-gated inwardly rectifying potassium channel KCNH2 (Homo sapiens, UniProt Q12809). Description: Inhibition of human ERG. Format: toxicity.
Data set [18] is described as follows: Inhibition of Plasmodium vivax DHODH.
Data set [19] in a line: Drug elimination in human urine assessed as unchanged fraction. As to conditions: read-out: Drug excretion. Format: ADME.
For data set [20], the system named is Plasmodium berghei. Nature of the data set: In vivo antimalarial activity against Plasmodium berghei infected in SCID mouse. The class given is functional.
Data set [21] can be described thus: Inhibition of Plasmodium vivax PI4K.
The subject of data set [22] is Plasmodium falciparum. Nature of the data set: Antimalarial activity against chloroquine resistant Plasmodium falciparum K1 incubated for 72 hrs by malaria SYBR green I nucleic acid staining dye based fluorescence assay. Format: functional, organism-based. As to conditions: K1, 72 h.
The test system of data set [23] is Plasmodium falciparum. Description: Antimalarial activity against chloroquine sensitive Plasmodium falciparum 3D7 incubated for 72 hrs by malaria SYBR green I nucleic acid staining dye based fluorescence assay. Format: functional, organism-based. As to conditions: 3D7, 72 h.
In data set [24] the test system is Plasmodium falciparum. Nature of the data set: Antiplasmodial activity against chloroquine resistant Plasmodium falciparum K1 incubated for 72 hrs by malaria SYBR green I nucleic acid staining dye based fluorescence assay. The class given is functional, organism-based. The note with it: K1, 72 h.
Data set [25] concerns Plasmodium falciparum. Nature of the data set: Antiplasmodial activity against chloroquine sensitive Plasmodium falciparum 3D7 incubated for 72 hrs by malaria SYBR green I nucleic acid staining dye based fluorescence assay. The note with it: 3D7, 72 h. The class given is functional, organism-based.
Data set [26] concerns Plasmodium yoelii. Nature of the data set: In vivo antimalarial activity against Plasmodium yoelii N-67 infected in Swiss mouse assessed as reduction in parasitemia level at 12.5 mg/kg, po measured on day 4 relative to control. Format: functional. Also on record: scale not given: the % may be the effect or the level left. The note with it: time 4 day.
Data set [27] can be described thus: Toxicity in Swiss mouse infected with Plasmodium yoelii N-67 assessed as survival rate at 12.5 mg/kg, po measured on day 4 relative to control. The class given is organism-based. The note with it: in vivo, time 4 day, read-out: Activity.
Data set [28] concerns Plasmodium berghei. Description: In vivo antimalarial activity against Plasmodium berghei infected in mouse model. Format: functional.

The structures appear in SMILES notation. In brackets after ≈: the same amount, converted by molar mass.

Voltage-gated inwardly rectifying potassium channel KCNH2, sequence (Q12809 whole entry): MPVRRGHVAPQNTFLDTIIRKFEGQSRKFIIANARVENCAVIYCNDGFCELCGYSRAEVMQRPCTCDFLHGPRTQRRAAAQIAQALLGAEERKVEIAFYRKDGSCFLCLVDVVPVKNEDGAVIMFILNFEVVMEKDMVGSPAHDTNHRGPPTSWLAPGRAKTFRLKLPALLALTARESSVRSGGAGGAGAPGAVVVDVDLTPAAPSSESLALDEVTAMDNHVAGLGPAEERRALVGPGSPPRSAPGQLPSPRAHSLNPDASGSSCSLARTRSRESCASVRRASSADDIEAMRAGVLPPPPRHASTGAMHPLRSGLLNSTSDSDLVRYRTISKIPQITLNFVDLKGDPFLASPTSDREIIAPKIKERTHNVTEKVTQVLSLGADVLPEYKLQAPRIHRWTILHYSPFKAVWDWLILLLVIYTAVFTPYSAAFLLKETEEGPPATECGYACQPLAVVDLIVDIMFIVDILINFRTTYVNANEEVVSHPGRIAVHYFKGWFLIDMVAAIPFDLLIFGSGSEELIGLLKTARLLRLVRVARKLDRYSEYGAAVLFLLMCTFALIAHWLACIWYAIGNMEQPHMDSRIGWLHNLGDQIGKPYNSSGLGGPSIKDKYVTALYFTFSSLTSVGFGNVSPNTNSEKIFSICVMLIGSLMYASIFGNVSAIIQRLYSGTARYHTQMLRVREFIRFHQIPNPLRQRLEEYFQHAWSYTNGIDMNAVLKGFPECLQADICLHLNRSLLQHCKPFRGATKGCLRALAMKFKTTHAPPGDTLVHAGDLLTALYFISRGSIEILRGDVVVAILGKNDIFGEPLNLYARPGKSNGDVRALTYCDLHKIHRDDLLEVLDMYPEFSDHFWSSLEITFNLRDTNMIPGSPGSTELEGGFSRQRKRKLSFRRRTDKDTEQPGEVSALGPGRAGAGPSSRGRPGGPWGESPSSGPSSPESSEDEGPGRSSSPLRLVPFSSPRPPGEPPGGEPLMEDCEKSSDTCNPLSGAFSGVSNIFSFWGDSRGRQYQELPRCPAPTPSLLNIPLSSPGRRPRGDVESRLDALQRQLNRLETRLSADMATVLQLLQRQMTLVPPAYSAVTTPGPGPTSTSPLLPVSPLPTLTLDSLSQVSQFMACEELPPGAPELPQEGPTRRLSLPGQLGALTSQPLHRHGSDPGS

What is called IC50 is the concentration at which inhibition is half-maximal. By pKa is commonly meant the negative logarithm of the acid dissociation constant. For the compound `c1cc([C@H]2CC[C@]3(CC2)OO[C@]2(O3)C3CC4CC(C3)CC2C4)ccc1OCCN1CCOCC1` [ARTEFENOMEL], the IC50 in [1] was 3.8 nM; in data set [3], 4.6 nM. Moreover, the pKa in data set [2] is 7.

`Cc1nc(Nc2ncc(N3CCN(C)[C@H](C)C3)c(Nc3cc(C)n(C)n3)n2)cc(C2CC2)c1F` [SUTIDIAZINE]: the IC50 in data set [1] was found to be 15 nM; in data set [3], 9 nM. For the same compound, the pKa in data set [2] came out at 8.4.

With `C[C@H]1[C@H](N2CCNCC2)O[C@@H]2O[C@]3(C)CC[C@H]4[C@H](C)CC[C@@H]1[C@@]24OO3`, the IC50 in [4] is 1.7 nM; in [5], 3.1 nM; in data set [6] it was 1.9 nM; in data set [7] it was 1.4 nM.

For the compound `FC1CCN(CCOc2ccc(C3CCC4(CC3)OOC3(OO4)C4CC5CC(C4)CC3C5)cc2)CC1` (stereo unspecified), the IC50 was greater than 20000 nM in [8], 4.2 nM in data set [1] and 5.2 nM in data set [3]. The ED90 in [9] was determined as 11 mg/kg. Moreover, the pKa in [2] was found to be 8.4.

What is called EC50 is the midpoint of the concentration-response curve. `Cc1nc(Nc2ccc(S(F)(F)(F)(F)F)cc2)c2c(C)noc2n1` had a half-maximal effective concentration (EC50) in data set [10] of 17 nM. This compound also came in with an IC50 in data set [11] of 36 nM.

Regarding `CCN(CC)CCCC(C)Nc1ccnc2cc(Cl)ccc12` (stereo unspecified) [CHLOROQUINE], the EC50 in [12] turned out to be 165 nM.

As to `NN1CN(c2ccc3ccccc3c2)C2=C(C(=O)CO2)C1=O`, the 50% inhibitory concentration (IC50) in data set [13] was 23 nM.

Compound `O=[N+]([O-])c1cccc(-c2csc(Nc3nc(NNc4ccccc4)nc(NNc4ccccc4)n3)n2)c1` had an IC50 in data set [14] of 11.3 µg/mL (≈ 22 µM).

Turning to `CN1CCN(c2nc(Cl)cc(NCCNc3ccnc4cc(Cl)ccc34)n2)CC1`, in data set [15], the Activity amounted to 93.9%.

With `COC(=O)N1CCN(C(=N)c2cccc(NC(=O)Nc3ccc(S(=O)(=O)NCc4ccc(S(N)(=O)=O)cc4)cc3)c2)CC1`, the values for the concentration for a half-maximal effect (EC50) in [1] and in data set [3] were 5 nM and 2 nM, respectively.

For the compound `CCOC(=O)C(=CNc1cccc(N(C)C)c1)C(=O)OCC`, the IC50 in [16] is 26000 nM.

As to `Cc1cc(Nc2ccc(S(F)(F)(F)(F)F)cc2)n2nc(C(C)(F)F)nc2n1` [DSM-265], the IC50 in data set [8] was greater than 10 µg/mL; in [17], 1660 nM; in data set [1], 2.6 nM; in data set [18], 48.1 nM; in data set [3], 1.8 nM. The compound further returned an ED90 in data set [9] of 3 mg/kg.

Consider `COc1cc(NC(C)CCCN)c2ncccc2c1` (stereo unspecified) [PRIMAQUINE], for which the dose excreted in data set [19] is less than 1%.

For `Nc1ncc(-c2ccc(C(=O)N3CCNCC3)cc2)nc1-c1ccc(C(F)(F)F)cc1`, the IC50 was 4.7 nM in data set [1], 23 nM in [21] and 5.4 nM in data set [3]. Moreover, in data set [20], the ED90 was found to be 0.25 mg/kg. Also, in [2], the pKa was 8.1.

Compound `CC(=O)N1CCN(c2ccc(CN(C(=O)/C=C/c3ccc(C(C)(C)C)cc3)[C@@H](Cc3ccccc3)C(=O)N3CCN(Cc4ccc(C#N)cc4)CC3)cc2)CC1` came in with an ED90 in data set [9] of 3.7 mg/kg. Further, the results for the IC50 in [1] and in data set [3] were 0.3 nM and 0.4 nM, respectively. In [2], this compound registered a pKa of 6.8.

For the compound `CC1CCN(C[C@@H](CC2CCCCC2)Nc2ccnc3cc(Cl)ccc23)CC1`, the values for the IC50 in [22] and in data set [23] were 7 nM and 938 nM, respectively.

As for `CCC1CCN(CC(CC(C)C)Nc2ccnc3cc(Cl)ccc23)CC1` (stereo unspecified), the half-inhibitory concentration (IC50) in [24] came out at 97.8 nM; in data set [25], 57 nM. In addition, in data set [26], the Activity came to 100%. In addition, the survival at 96 h in data set [27] was 100%.

For the compound `CCN(CC)CCCC(C)Nc1cc(OC)cc2cccnc12` (stereo unspecified) [PAMAQUINE], the dose excreted in [19] was less than 1%.

For `CC1(C)c2nc(-c3ccc(F)cc3)c(Nc3ccc(F)cc3)n2CCN1C(=O)CN` [GANAPLACIDE], in [28], the ED99 was determined as 2.2 mg/kg. The values for the IC50 in [8] and in data set [17] were greater than 6000 nM and 13400 nM, respectively. This compound also showed a pKa in [2] of 7.3.
